Reference: PubChem BioAssay (NCI)
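The compound was tested at five concentrations on cells cultured in 96-well plates, with a 48-hour exposure period. GI50 is the concentration that inhibits growth by half. TGI is the concentration that stops growth completely.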

Experiments:
Test in all cases: inhibition of tumour cell growth, NCI panel, 48 h
[1] = system: BT-549 breast
[2] = system: NCI-H460 lung
[3] = system: ACHN renal
[4] = system: COLO 205 colon
[5] = system: MDA-MB-231 breast
[6] = system: A549 NSCLC
[7] = system: SK-MEL-28 melanoma
[8] = system: SR leukemia
[9] = system: SNB-75 CNS
[10] = system: HCT-116 colon

| Structure (SMILES) | GI50 [1] [µM] | TGI [1] [µM] | GI50 [2] [µM] | TGI [2] [µM] | GI50 [3] [µM] | TGI [3] [µM] | GI50 [4] [µM] | TGI [4] [µM] | GI50 [5] [µM] | TGI [5] [µM] | GI50 [6] [µM] | TGI [6] [µM] | GI50 [7] [µM] | TGI [7] [µM] | GI50 [8] [µM] | TGI [8] [µM] | GI50 [9] [µM] | TGI [9] [µM] | GI50 [10] [µM] | TGI [10] [µM] |
| --- | --- | --- | --- | --- | --- | --- | --- | --- | --- | --- | --- | --- | --- | --- | --- | --- | --- | --- | --- | --- |
| CC(=O)[C@@]12O[C@@H]1CC1C3CCC4=CC(O)CCC4(C)C3CCC12C (stereo partly drawn) | 27.8 | > 100 | 70.8 | > 100 | 44.9 | > 100 | 57.4 | > 100 | 12.5 | 26.8 | 72.7 | > 100 | 69.4 | > 100 | > 100 | > 100 | 18.7 | 50.8 | 31.7 | > 100 |
| C=C(Br)C(C)(Br)CCC(Br)C(C)(C)Cl (stereo not drawn) | – | 52.6 | – | 36.6 | – | 35.6 | – | 33.8 | – | 34.8 | – | > 100 | – | 33.3 | – | 27.9 | – | 33.9 | – | 25 |
| O=C1NCC2(CCN(CCCC3(c4ccc(F)cc4)OCCO3)CC2)N1c1ccccc1 | – | – | – | > 100 | – | > 100 | – | > 100 | – | > 100 | – | > 100 | – | > 100 | – | > 100 | – | > 100 | – | > 100 |
| Cc1c2c(nn1-c1ccc(S(=O)(=O)/N=C3\SCCC(=O)N3c3ccccc3)cc1)-c1ccccc1CC2 | > 100 | > 100 | > 100 | > 100 | > 100 | > 100 | > 100 | > 100 | 35.1 | > 100 | > 100 | > 100 | > 100 | > 100 | 65 | > 100 | – | – | > 100 | > 100 |
| COc1ncnc(NS(=O)(=O)c2ccc(N=C3C(=O)N(CN4CCN(c5c(F)cc6c(=O)c(C(=O)O)cn(C7CC7)c6c5OC)CC4C)c4ccc(Cl)cc43)cc2)c1OC (stereo not drawn) | 20.6 | > 50 | 11 | > 50 | 7.17 | 20.6 | 19.6 | > 50 | 6.3 | > 50 | 21.2 | > 50 | 26.1 | > 50 | 5.3 | > 50 | > 50 | > 50 | 11.5 | > 50 |
| Nc1ncnc2c1nnn2C1OC(CO)C(O)C1O (stereo not drawn) | 0.496 | 5.75 | – | 5.64 | 0.141 | 8.84 | – | 2.73 | 0.232 | 3.99 | – | 19.2 | – | 14.9 | 0.049 | > 12.7 | – | 16.9 | – | 10.5 |
| Cc1cc2c(cc1Cl)SC(N(N(C)C)S(=O)(=O)c1ccc(Cl)cc1)=NS2(=O)=O | 19.4 | 48.7 | 16.9 | 45.5 | 32.1 | > 100 | 44 | > 100 | 22.5 | 55 | 20.3 | > 100 | 29.1 | > 100 | 23.3 | 91.7 | 36 | 97.5 | 23.6 | 71.1 |
| CCOC(=O)c1cc2nc3ccccc3c(=O)n2c2ccccc12 | – | > 10 | – | > 10 | – | > 10 | – | > 10 | – | > 10 | – | > 10 | – | > 10 | – | – | – | > 10 | – | > 10 |
| O=C(/C=C/c1ccc(Cl)cc1)c1ccc(Nc2ccnc3cc(Cl)ccc23)cc1 | 29.3 | > 100 | > 57.6 | > 100 | > 100 | > 100 | 31.9 | > 100 | 20.3 | > 58.4 | > 100 | > 100 | 31.9 | > 100 | 0.565 | > 100 | > 100 | > 100 | – | – |
| CCN(CC)c1ccc(-c2cc(-c3cc(OC)c(OC)c(OC)c3)nc(N3CCOCC3)c2C#N)cc1 | 0.48 | > 100 | 0.412 | 5.73 | 1.22 | > 100 | 0.439 | 7.48 | 0.519 | > 20.8 | 1.37 | > 100 | 4.78 | > 63.5 | 0.163 | 0.672 | 1.02 | 12 | 0.457 | 21.1 |
| COc1ccc([C@H]2[C@@H](F)C(=O)N2c2cc(OC)c(OC)c(OC)c2)cc1F | 0.0498 | 33.8 | 0.356 | 91.1 | – | – | 0.156 | 0.503 | 0.355 | > 100 | 0.394 | > 100 | 15.8 | > 100 | 0.0408 | > 100 | > 100 | > 100 | 0.0325 | > 100 |
| N#CC(C#N)=CNC(N)=S | – | > 100 | – | > 100 | – | > 100 | – | > 100 | – | > 100 | – | > 100 | – | > 100 | – | > 100 | – | > 100 | – | > 100 |
| ClCc1cccc(Cn2cnc3ncnc(Cl)c32)c1 | 13.1 | 28.6 | 2.09 | 4.45 | 1.88 | 3.53 | 2.61 | > 100 | 1.72 | 3.4 | 17.2 | 39.6 | 1.81 | 3.52 | – | – | 1.84 | 3.53 | 1.78 | 5.21 |
| O=[N+]([O-])C(/C=C(\Cl)n1nnc2ccccc21)=C(/Cl)n1nnc2ccccc21 | – | – | – | > 100 | – | > 100 | – | > 100 | – | > 100 | – | > 100 | – | > 100 | – | > 100 | – | – | – | > 100 |
| Cc1ccc(S(=O)(=O)Nc2ccccc2C(=O)c2ccc(C)c(C)c2)cc1 | – | > 100 | – | > 100 | – | > 100 | – | > 100 | – | > 100 | – | > 100 | – | > 100 | – | – | – | > 100 | – | > 100 |
| Cc1cc(-c2ccc3nc(C4CCOCC4)n(CCOC(F)(F)F)c3c2)cn(C)c1=O | 3.99 | > 80.4 | 1.06 | – | – | – | – | 2.97 | – | – | 0.48 | – | – | – | 0.597 | 13.4 | – | 5.97 | – | 14.8 |
| OCCCCCNCc1cc2cc3c(cc2c2cc(OCc4ccccc4)ccc12)OCO3 | 1.62 | 2.98 | – | – | 1.58 | 2.93 | – | – | 1.3 | 2.56 | 1.55 | 2.89 | 1.82 | 3.23 | – | – | 1.72 | 3.09 | 1.46 | 2.81 |
| OCC#Cc1ccccc1C#Cc1ccccc1 | 13.2 | 27.8 | 18.2 | 35.2 | 14.9 | 28.1 | 19.6 | 37.6 | 3.26 | 16.4 | 16.5 | 45 | 19.2 | 40.4 | – | – | 14.6 | 30.4 | 15.3 | 28.6 |
| COc1cc2c3c(n(C)c(=O)c2cc1OC)-c1cc2c(cc1/C3=C\CCN)OCO2 | 2.13 | 46.1 | 0.0147 | 1.81 | 0.0476 | 0.585 | 0.975 | > 100 | 1.36 | 4.78 | 0.165 | 4.44 | 8.76 | 33.5 | – | – | 6.05 | > 59.9 | < 0.024 | 0.348 |
| CC(C)[C@H]1COC(=O)N1[C@@H]1C(=O)N([C@@H](CCC(=O)N2CCN(C3CCCC3)CC2)C(=O)N[C@@H]2CCCc3ccccc32)[C@@H]1/C=C/c1cccc(Br)c1 | 1.46 | 3.11 | 1.69 | 3.62 | – | – | 1.5 | 3.11 | 1.86 | 3.77 | 3.05 | 11.5 | – | – | 1.87 | 4.71 | 1.36 | 3.91 | 1.57 | 2.99 |
| COc1cc2c3c(n(C)c(=O)c2cc1OC)-c1cc2c(cc1/C3=C\CCCN)OCO2 | 15.5 | 38.9 | 2.65 | > 100 | 2.09 | 8.64 | 7.67 | > 100 | 5.09 | 31.5 | 4.3 | > 100 | 18.8 | > 100 | – | – | 11.2 | 31.6 | 4.64 | 25.2 |
| CC(C)OP(=O)(OC(C)C)C(=NCCN=C(NNc1ccc([N+](=O)[O-])cc1)P(=O)(OC(C)C)OC(C)C)NNc1ccc([N+](=O)[O-])cc1 | – | – | – | > 100 | – | 66.5 | – | 29.6 | – | – | – | > 100 | – | > 100 | – | > 100 | – | > 100 | – | > 100 |
| O=C(/C=C/c1ccncc1)c1cc(Cl)ccc1O | 16.6 | 31.1 | 15.5 | 34.7 | 23.9 | 60 | 16.8 | 32.3 | 18.6 | 42.3 | 23 | 53.2 | 22.6 | 47.5 | – | – | 17.5 | 32.2 | 14.6 | 27.9 |
| CN1CCN(CCCn2c(=O)c3sc4ncccc4c3n3nnc(-c4ccccc4)c23)CC1 | – | – | 6.88 | 13.7 | 8.2 | 15.1 | 7.35 | 14.6 | 6.88 | 13.6 | 6.81 | 13.8 | 8.73 | 15.8 | 1.11 | 2.57 | 6.82 | 13.3 | 5.23 | 11.7 |
| COc1cc(NCc2ccc3oc(=O)c(-c4ccccc4)nc3c2)cc(OC)c1OC | – | – | – | > 10 | – | > 10 | – | > 10 | – | > 10 | – | > 10 | – | > 10 | – | > 10 | – | > 10 | – | > 10 |
| CCN(CC)/C(SCc1ccccc1)=C(\C(Cl)=C(Cl)Cl)[N+](=O)[O-] | – | – | – | 55.1 | – | 29.8 | – | 38.9 | – | 49.7 | – | 38.1 | – | 33.9 | – | 73.6 | – | – | – | 28.2 |
| O=C(CSc1ccc(Cl)cc1)Nc1ccc(-c2nc3ccccc3s2)c(Cl)c1 | 2.76 | 8.53 | 3.41 | 16 | 4.09 | 36.9 | 2.88 | 9.24 | 8.34 | 23.6 | 5.84 | > 100 | 6.31 | 46.4 | – | – | 29.1 | > 100 | 2.08 | 5.45 |
| C[C@@H]1CCC2[C@@H](C)[C@@H](OCC(CO[C@H]3OC4O[C@@]5(C)CC[C@H]6[C@H](C)CCC([C@H]3C)[C@@]46OO5)OC(=O)CCC(=O)O)OC3O[C@@]4(C)CC[C@@H]1[C@]32OO4 (stereo partly drawn) | 3.74 | 29.4 | < 0.0183 | 15.8 | 0.126 | 17.5 | < 0.01 | 12.5 | 0.0602 | 7.95 | 0.971 | 32.6 | 11.4 | > 47.4 | – | – | 16.1 | 36.6 | < 0.01 | 14.6 |
| COC(=O)C1=C(C)NC(C)=C(C(=O)OCCCN2CCC(c3ccccc3)(c3ccccc3)CC2)C1c1cccc([N+](=O)[O-])c1 (stereo not drawn) | – | – | – | 3.35 | – | 3.05 | – | 3.08 | – | 2.65 | – | 3.41 | – | 3.39 | – | 4.5 | – | 9.84 | – | 2.86 |
| CN(C)c1nc(=Nc2ccc(N=c3nc(N(C)C)ss3)cc2)ss1 | – | – | – | > 100 | – | > 100 | – | 70.6 | – | – | – | > 100 | – | 33.6 | – | 64.9 | – | > 100 | – | 34.1 |
